What was measured:
[1] = biological target: B/Victoria-lineage neuraminidase (NA); format: biochemical, influenza B/Victoria-lineage virus
[2] = tested on: A(H1N1)pdm09 neuraminidase (NA); format: biochemical, influenza A(H1N1)pdm09 virus

| Structure (SMILES) | IC50 values fold higher than the median [1] | inhibition class (NI, RI, HRI) [2] |
| --- | --- | --- |
| CCC(CC)[C@H](NC(C)=O)[C@@H]1[C@H](O)[C@@H](C(=O)O)C[C@H]1N=C(N)N [Peramivir, peramivir] | 8- to 14 fold |  |
| [H]/N=C(\N)N[C@H]1C=C(C(=O)O)O[C@@H]([C@H](OC)[C@H](O)CO)[C@@H]1NC(C)=O [Laninamivir, laninamivir] |  | NI (key: normal inhibition (NI) (A viruses <10-fold; reduced inhibition (RI) (A viruses 10- to 100-fold; highly reduced inhibition (HRI) (A viruses >100-fold) |
